From patent US20240059658A1 (Emory University, priority 2019, published 2024)
Read-outs that look alike come from different tables or passages of the source.

Key:
MYCN = MYCN inhibition; format: cell-based; conditions: MDM2 reduction
NB-1643 = assay: WST cytotoxicity assay, NB-1643; format: cell-based; conditions: Homo sapiens; NB-1643 line; read-out: Cancer cell cytotoxicity IC50
Procedure: (§1) This study used two ALL cell lines (EU-1 and EU-3) and three NB cell lines (NB-1643, SHEP1 and LA1-55N). All 5 cancer cell lines were established from pediatric ALL or NB patients and were well-characterized for their expression of MDM2 and p53-status, as reported previously. All cell lines were grown in standard culture medium (RPMI 1640 containing 10% FBS, 2 mmol/L L-glutamine, 50 U penicillin and 50 μg/mL streptomycin) at 37° C. in a humidified atmosphere containing 5% CO2.
(§2) The cytotoxic effect of MX 69 and MX69 analogs on cancer cells was determined using the water-soluble tetrazolium salt (WST) assay. Briefly, cells cultured in 96-well microtiter plates were treated with different concentrations of AQ-101 for a 20-h period. WST (25 μg/well) was then added and incubation continued for an additional 4 h, after which optical density (OD) was read with a microplate reader (test wavelength of 450 nm; reference wavelength of 620 nm).

697 cell line = assay: WST cytotoxicity assay, 697 cell line; format: cell-based; conditions: read-out: Cancer cell cytotoxicity IC50
Procedure: as §2

p53 = p53 induction / expression (Western blot); format: cell-based; conditions: for p53 induction: words or +/− grades, key not given
Procedure: (§3) Cells were lysed in a buffer composed of 50 mM Tris, pH 7.6, 150 mM NaCl, 1% Nonidet P-40, 10 mM sodium phosphate, 10 mM NaF, 1 mM sodium orthovanadate, 2 mM phenylmethylsulfonyl fluoride (PMSF), […], 10 μg/mL leupeptin and 10 μg/mL pepstatin. After centrifugation, the clarified cell lysate was separated from the pellet of cell debris, and then incubated with 15 μL Protein G/Protein A-agarose and 1 μg of antibodies, overnight at 4° C. For the Western blot, the resulting cell lysates or immunoprecipitates were resolved by SDS-PAGE. They were then transferred to a nitrocellulose filter and probed with the specific antibodies as listed in the supplemental Materials section. Finally, proteins were visualized with a chemiluminescent detection system.

855 line = assay: WST cytotoxicity assay, 855 line; format: cell-based; conditions: read-out: Cancer cell cytotoxicity IC50
Procedure: as §2

caspases-3, -9 and PARP = assay: Western blot, cleavage of caspases-3, -9 and PARP in EU-1 cells; format: cell-based
Procedure: as §3

MDM2 RING protein [1] = molecular target: T1, MDM2 RING protein (Homo sapiens, UniProt Q00987); conditions: Gu et al. Cancer Cell 2016; cited from earlier work
normal cells/tissues = conditions: Gu et al. Cancer Cell 2016; cited from earlier work
EU-1 = assay: WST cytotoxicity assay, cancer cell EU-1; format: cell-based, human
Outline: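 Pediatric ALL and NB lines grown in RPMI 1640 with 10% FBS at 37 °C, 5% CO2. Cells were exposed to a range of compound concentrations for 20 h, then WST (25 μg/well) was added for a further 4 h. OD read at 450 nm against a 620 nm reference.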

in vivo = conditions: mouse
[2] = system: human normal bone marrow mononuclear (NBMM) cells; assay: Clonogenic assay for CFU-GM and BFU-E (normal hematopoiesis); format: cell-based; conditions: 1 μM, 14 days
Procedure: For colony formation of normal human hematopoiesis assay, a bottom layer of low-melting-point, 0.5% agarose (in RPMI 1640 medium plus 10% FBS) was poured into gridded 35 mm dishes and allowed to gel. Cells were cultured in a top layer of 0.35% agarose/medium at 37° C. in a humidified atmosphere containing 5% CO2. After 2-3 weeks, cultures were fixed with formalin and colonies scored.

MDM2 [3] = molecular target: T2, MDM2 (Homo sapiens, UniProt Q00987); assay: IP-Western blot, ubiquitination of endogenous MDM2 in EU-1 cells; format: cell-based; conditions: 1 μM
T2 construct: ubiquitination of endogenous MDM2 in EU-1 cells; endogenous in cells; host or cells: EU-1 (ALL) cells
Procedure: as §3

LA1-55N = assay: WST cytotoxicity assay, LA1-55N; format: cell-based, human; conditions: line does not express normal p53
Procedure: as §1, §2

NB cell lines = assay: Colony formation assay, NB cell lines; format: cell-based, human
Procedure: A clonogenic assay was used to determine the effect of MX69 analogs on in vitro growth of NB and normal human hematopoietic cells, respectively. For NB1 colony formation assay, cells were harvested with treatment by trypsinization, producing a single-cell suspension, and then 200 cells were seeded into a 6-well plate and cultured for approximately 2 weeks. Colonies were stained with a mixture of 6.0% glutaraldehyde and 0.5% crystal violet for 30 min. Then carefully removed the staining mixture, rinsed with tap water and counted the colonies.

855 luc = assay: WST cytotoxicity assay, 855 luc; format: cell-based; conditions: read-out: Cancer cell cytotoxicity IC50
Procedure: as §2

91-06 line = assay: WST cytotoxicity assay, 91-06 line; format: cell-based; conditions: no MDM2 and p53, read-out: Cancer cell cytotoxicity IC50
Procedure: as §2

MDM2 RING protein [4] = molecular target: T1, MDM2 RING protein; assay: Compound-protein binding (ITC) to MDM2 RING protein; conditions: MDM2 RING domain
Procedure: Isothermal titration calorimetry (ITC) assay was performed using the auto-iTC200 instrument (MicroCal, GE). MDM2 protein was loaded into a 96 DeepWell PP plate, and then compound was titrated stepwise into the protein sample cell using a syringe, for a total of 16 injections (except for the first injection, which was 0.4 μl). The equilibrium time between two adjacent injections was 210 s. The binding stoichiometry (n), binding constant (Kd), and thermodynamic parameters (ΔH and ΔS) were determined by fitting the titration curve to a one-site binding mode, using the Origin software provided by the manufacturer.

XIAP = XIAP inhibition / expression (Western blot); format: cell-based; conditions: EU-1 cells; dose-dependent
Procedure: as §3

[5] = system: ALL cell lines EU-1 and EU-3; assay: WST cytotoxicity assay, ALL cell lines; format: cell-based; conditions: Homo sapiens, 48 h, read-out: IC50, cytotoxicity against ALL cell lines
Procedure: as §1
as §2, with “Briefly, cells cultured in 96-well microtiter plates were treated with different concentrations of AQ-101 for a 20-h period.” left out

p21 and PUMA = assay: Western blot for p53 targets p21 and PUMA in EU-1 cells; format: cell-based
Procedure: as §3

93-10 line = assay: WST cytotoxicity assay, 93-10 line; format: cell-based; conditions: 93-10 line no MDM2 and p53; read-out: Cancer cell cytotoxicity IC50
Procedure: as §2

XIAP mRNA = assay: Polysome analysis of XIAP mRNA in EU-1 cells; format: cell-based; conditions: 1 μM for 4 h
Procedure: Cells were incubated with 100 μg/mL cycloheximide (CHX) for 15 min to arrest polyribosome migration, and then lysed (in order to isolate cytoplasmic extracts) in a buffer containing 20 mM Tris-HCl at pH 8.0, 100 mM NaCl, 5 mM MgCl2, 0.5% Triton X-100, 500 U/mL RNAsin, and a cocktail of protease inhibitors. Fractionation was performed on a 15-45% (w/v) sucrose gradient at 39,000 rpm for 1 h (SW41Ti rotor). Fractions were collected by upward replacement in a fractionator (Isco, Lincoln, NE). The RNA from each fraction was subjected to quantitative PCR.

[6] = system: NB cell lines NB-1643, SHEP1 and LA1-55N; assay: WST cytotoxicity assay, NB cell lines; format: cell-based; conditions: Homo sapiens, NB-1643, SHEP1, LA1-55N, 48 h, read-out: IC50, cytotoxicity against NB cell lines
Procedure: as §1
as §2, with “Briefly, cells cultured in 96-well microtiter plates were treated with different concentrations of AQ-101 for a 20-h period.” left out

MDM2 [7] = molecular target: T2, MDM2; assay: MDM2 reduction / expression (Western blot); format: cell-based
Procedure: as §3

DAOY line = assay: WST cytotoxicity assay, DAOY line; format: cell-based; conditions: Homo sapiens; DAOY line with MDM2/no p53; read-out: Cancer cell cytotoxicity IC50
Procedure: as §2

T2 sequence (Q00987 whole entry): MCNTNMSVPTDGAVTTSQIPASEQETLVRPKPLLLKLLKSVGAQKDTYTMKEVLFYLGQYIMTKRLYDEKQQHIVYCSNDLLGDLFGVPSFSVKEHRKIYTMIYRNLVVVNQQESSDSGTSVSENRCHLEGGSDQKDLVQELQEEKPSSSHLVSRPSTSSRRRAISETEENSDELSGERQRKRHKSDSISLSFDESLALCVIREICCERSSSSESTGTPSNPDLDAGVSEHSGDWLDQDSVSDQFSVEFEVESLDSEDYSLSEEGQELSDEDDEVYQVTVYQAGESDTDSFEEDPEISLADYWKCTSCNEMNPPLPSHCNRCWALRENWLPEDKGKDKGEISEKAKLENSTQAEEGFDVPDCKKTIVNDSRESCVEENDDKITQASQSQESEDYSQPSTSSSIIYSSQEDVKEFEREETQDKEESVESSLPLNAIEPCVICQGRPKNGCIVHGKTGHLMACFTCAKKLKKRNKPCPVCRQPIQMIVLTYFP
T1 sequence (Q00987 438-479 limits assumed): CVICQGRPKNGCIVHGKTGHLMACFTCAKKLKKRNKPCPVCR

## Cc1ccc(NS(=O)(=O)c2ccc3c(c2)C2NCC[C@H]2C(C2CCCCC2)N3)cc1C (some centres unmarked) [Compound 69L61]
MYCN
  MYCN inhibition: inhibition
NB-1643
  IC50: 1.6 µM
697 cell line
  IC50: 3.6 µM
p53
  p53 induction: No p53
855 line
  IC50: 2.43 µM

## Cc1ccc(NS(=O)(=O)c2ccc3c(c2)C2OCCC2C(c2ccc(C(=O)C(C)C)cc2)N3)cc1C (centres unmarked) [McX69-102]
caspases-3, -9 and PARP
  Time after treatment at which cleavage of caspases-3, -9 and PARP can be detected: 8 h

## Cc1ccc(NS(=O)(=O)c2ccc3c(c2)[C@H]2C=CC[C@H]2[C@H](c2ccc(C(=O)O)cc2)N3)cc1C [MX69, reference compound]
MDM2 RING protein [1]
  Binding to the RING domain of MDM2: specifically binds to the RING domain of MDM2
Normal cells/tissues
  Toxicity on normal cells/tissues: minimal toxicity
EU-1; Homo sapiens, EU-1, EU-1, no other cell line named in the cell, read-out: Cancer cell (EU-1) cytotoxicity IC50
  IC50: 7 µM
In vivo
  MTD: 200 mg/kg

## COc1cccc2c1C(=O)c1c(O)c3c(c(O)c1C2=O)C[C@@](O)(C(=O)CO)C[C@@H]3O[C@H]1C[C@H](N)[C@H](O)[C@H](C)O1 [Dox, doxorubicin]
[2]
  BFU-E colony numbers and size: significantly reduced
  CFU-GM colony numbers and size: significantly reduced

## Cc1ccc(NS(=O)(=O)c2ccc3c(c2)C2OCC[C@H]2C(c2ccc(C(=O)C(C)C)cc2)N3)cc1C (some centres unmarked) [Compound 69L52, N-(3,4-dimethylphenyl)-4-(4-isobutyrylphenyl)-2,3,3a,4,5,9b-hexahydrofuran[3,2-c]quinolone-8-sulfonamide]
MDM2 [3]
  Ubiquitination of endogenous MDM2: induced ubiquitination of endogenous MDM2
NB-1643
  IC50: 0.7 µM
LA1-55N
  Cytotoxicity to LA1-55N compared with other cell lines: much less cytotoxicity
NB cell lines; NB cell lines
  Colony number and size as compared with controls: significant reduction
NB cell lines; all 3 NB cell lines, two weeks
  Cell growth in colony formation assay: potently inhibited cell growth
855 luc
  IC50: 0.5 µM
caspases-3, -9 and PARP; 69L52 1 μM vs MX69 5 μM
  Cleavage of caspases-3, -9 and PARP compared with MX69: stronger cleavage
697 cell line
  IC50: 0.45 µM
91-06 line
  IC50: 3.62 µM
EU-1; EU-1, no other cell line named in the cell, read-out: Cancer cell (EU-1) cytotoxicity IC50
  IC50: 1.1 to 1.4 µM
EU-1; Homo sapiens, EU-1, printed in the Mouse MTD column, control run of the cytotoxicity test, read-out: Value of the compound used as (positive) control alongside the row's compound
  IC50: 0.46 µM
MDM2 RING protein [4]
  MDM2 binding affinity as compared with MX69: Increased MDM2 Binding Affinity
p53; EU-1 cells, accompanying MDM2 downregulation
  p53 expression: increased expression
p53
  p53 induction: induction
XIAP
  XIAP expression: remarkable downregulation
[5]
  IC50: 0.3 to 0.4 µM
855 line
  IC50: 0.74 µM
p21 and PUMA
  p53 downstream targets p21 and PUMA: activation
93-10 line
  IC50: 5.93 µM
XIAP mRNA
  Polyribosome association of XIAP mRNA: downregulation in polyribosome association
[6]
  IC50: 0.5 to 1.2 µM
MDM2 [7]; EU-1 cells
  Time after treatment at which MDM2 and XIAP downregulation occurred: 2 to 4 h
MDM2 [7]; EU-1 cells, 1 μM for 8 h, then 10 μM MG132 4 h
  MDM2 downregulation in presence of MG132: blocked by MG132
MDM2 [7]; EU-1 cells, dose-dependent
  MDM2 expression: remarkable downregulation
MDM2 [7]; words or +/− grades, key not given
  MDM2 reduction: inhibition
DAOY line
  IC50: 2.17 µM
